Laboratory results as given in patent US7423048B2, “Compounds for treating fundic disaccomodation” (Janssen Pharmaceutica, N.V., priority 2000, dated 2008).
Marks after values point to notes of the source that are not given here.

Tested on: fundus of the stomach (gastric tone) in conscious dogs
Assay: Gastric tone measured by an electronic barostat in conscious dogs
Format: in vivo, beagle dogs
Details: 1 hour observation period, constant pressure 6 mmHg
Excerpt: C. Pharmacological Examples C.1 Gastric Tone Measured by an Electronic Barostat in Conscious Dogs
Gastric tone cannot be measured by manometric methods. Therefore an electronic barostat was used. This allows the study of the physiological pattern and regulation of gastric tone in conscious dogs and the influence of test-compounds on this tone.
The barostat consists of an air injection system which is connected by a double-lumen 14-French polyvinyl tube to an ultrathin flaccid polyethylene bag (maximal volume: ±700 ml). Variations in gastric tone were measured by recording changes in the volume of air within an intragastric bag, maintained at a constant pressure. The barostat maintains a constant pressure (preselected) within a flaccid air-filled bag introduced into the stomach, changing the volume of air within the bag by an electronic feedback system.
Thus the barostat measures gastric motor activity (contraction or relaxation) as changes in intragastric volume (decrease or increase resp.) at a constant intragastric pressure. The barostat consists of a strain gauge linked by an electronic relay to an air injection-aspiration system. Both the strain gauge and the injection system are connected by means of double-lumen polyvinyl tube to an ultrathin polyethylene bag. A dial in the barostat allows selection of the pressure level to be maintained within the intragastric bag.
Female beagle dogs, weighing 7-17 kg, were trained to stand quietly in Pavlov frames. They were implanted with a gastric cannula under general anaesthesia and aseptic precautions. After a median laparotomy, an incision was made through the gastric wall in longitudinal direction between the greater and the lesser curve, 2 cm above the nerves of Latarjet. The cannula was secured to the gastric wall by means of a double purse string suture and brought out via a stub wound at the left quadrant of the hypochondrium. Dogs were allowed a recovery period of two weeks.
At the beginning of the experiment, the cannula was opened in order to remove any gastric juice or food remnants. If necessary, the stomach was cleansed with 40 to 50 ml lukewarm water. The ultrathin bag of the barostat was positioned into the fundus of the stomach through the gastric cannula. In order to ensure easy unfolding of the intragastric bag during the experiment, a volume of 300-400 ml was injected twice into the bag.
When during a stabilisation period of maximum 90 minutes, the gastric volume is stable during 15 minutes at a constant pressure of 6 mmHg (about 0.81 kPa), the test compound was administered subcutaneously (S.C.), or intraduodenally (I.D.). Test compounds were screened, i.e. changes in gastric volume were measured, usually at 0.63 mg/kg. […] Table C-1 summarizes the mean maximal change in volume on relaxation of the fundus, during the 1 hour observation period after S.C. or I.D. administration of the test compound (0.63 mg/kg).

[1] = S.C. administration, 0.63 mg/kg

SMILES	Maximum change in volume (mean maximal change in volume on relaxation of the fundus) [1]	further results
O=C(O)C(=O)O.O=C1NCCCN1CCCNCC1CCc2cccnc2O1 (racemic) [Compound 9, (±)-1-[3-[[(3,4-dihydro-2H-pyrano[2,3-b]pyridin-2-yl)methyl]amino]propyl]tetrahydro-2(1H)-pyrimidinone ethanedioate (1:1)]	78 mL	
O=C1CCN(CCCNC[C@H]2COc3cccnc3O2)C(=O)N1 [Compound 25, (S)-1-[3-[[(2,3-dihydro[1,4]dioxino[2,3-b]pyridin-3-yl)methyl]amino]-propyl]dihydro-2,4(1H,3H)-pyrimidinedione]		Maximum change in volume (mean maximal change in volume on relaxation of the fundus) (I.D. administration, 0.04 mg/kg (footnote *)): 226* ml
O=C1NCCCN1CCCNCC1COc2cccnc2O1 (racemic) [Compound 1, (±)-1-[3-[[(2,3-dihydro-1,4-dioxino[2,3-b]pyridin-3-yl)methyl]amino]propyl]tetrahydro-2(1H)pyrimidinone]	156 mL	
O=C1CN(CC(O)CNCC2COc3cccnc3O2)C(=O)N1 (centres unmarked) [Compound 13, 1-[3-[[(2,3-dihydro-1,4-dioxino[2,3-b]pyridin-3-yl)methyl]amino]-2-hydroxypropyl]-2,4-imidiazolidinedione]		Maximum change in volume (mean maximal change in volume on relaxation of the fundus) (I.D. administration, 0.63 mg/kg): 118 mL
CC1(C)CNC(=O)N(CCCNCC2Oc3cccnc3O2)C1 (racemic) [Compound 10, (±)-1-[3-[(1,3-dioxolo[4,5-b]pyridin-2-ylmethyl)amino]-propyl]tetrahydro-5,5-dimethyl-2(1H)-pyrimidinone]	31 mL	
